Measured values taken from patent US11084796B2, “Heterocyclic derivatives for the treatment of RSV” (GEORGIA STATE UNIVERSITY RESEARCH FOUNDATION, INC., priority 2016, dated 2021).

Tested on: RSV
Assay: Potency range (EC50 values) of C series compounds against RSV
Assay type: cell-based
Conditions: human respiratory syncytial virus
Method: Two-fold serial dilutions of hit candidates were prepared in 384-well plates in three replicates each using the Nimbus liquid handler. BEAS-2B cells (8×10^3/well) were then plated as before, serial dilutions transferred using the pin-tool, and cells infected with recombinant virus strains expressing distinct luciferase reporter proteins or left uninfected for cell viability assessment. Reporter signals were recorded as outlined above. To determine cell viability, PrestoBlue substrate (life technologies) was added after 40-hour incubation of cells at 37° C. (5 μl/well) and top-read fluorescence (excitation 560 nm; emission 590 nm; instrument gain 85) recorded after 45 minutes of incubation at 37° C. using the H1 synergy plate reader. Four-parameter variable slope regression modeling was applied to determine 50% active (EC50) and toxic (CC50) concentrations.

Structure (SMILES) | EC50 [µM]
O=C(CN1C(=O)C(C(=O)N2CCCCC2)Sc2ccccc21)NC1CCCCC1 (centres unmarked) [AVG-044, N-cyclohexyl-2-(3-oxo-2-(piperidine-1-carbonyl)-2H-benzo[b][1,4]thiazin-4(3H)-yl) acetamide] | 1 to 10
O=C(CN1C(=O)C(C(=O)N2CCCCC2)Sc2ccccc21)NC1CCOCC1 (centres unmarked) [AVG-045] | > 20
O=C(CN1C(=O)C(C(=O)N2CCCCC2)Sc2ccccc21)NC1CCNCC1 (centres unmarked) [AVG-046] | > 20
CN1CCC(NC(=O)CN2C(=O)C(C(=O)N3CCCCC3)Sc3ccccc32)CC1 (centres unmarked) [AVG-047] | > 20
CC(C)NC(=O)CN1C(=O)C(C(=O)N2CCCCC2)Sc2ccccc21 (centres unmarked) [AVG-048] | > 20
CC1CCC(NC(=O)CN2C(=O)C(C(=O)N3CCCCC3)Sc3ccccc32)CC1 (centres unmarked) [AVG-049] | 1 to 10
CC1(C)CCC(NC(=O)CN2C(=O)C(C(=O)N3CCCCC3)Sc3ccccc32)CC1 (centres unmarked) [AVG-050] | 1 to 10
O=C(CN1C(=O)C(C(=O)N2CCCCC2)Sc2ccccc21)NC1CCCC1 (centres unmarked) [AVG-051] | 1 to 10
Cc1ccccc1NC(=O)CN1C(=O)C(C(=O)N2CCCCC2)Sc2ccccc21 (centres unmarked) [AVG-052] | 1 to 10
Cc1cccc(NC(=O)CN2C(=O)C(C(=O)N3CCCCC3)Sc3ccccc32)c1 (centres unmarked) [AVG-053] | > 20
O=C(CN1C(=O)C(C(=O)N2CCOCC2)Sc2ccccc21)NC1CCCCC1 (centres unmarked) [AVG-054, N-cyclohexyl-2-(2-(morpholine-4-carbonyl)-3-oxo-2H-benzo[b][1,4]thiazin-4(3H)-yl) acetamide] | 1 to 10
O=C(CN1C(=O)C(C(=O)N2CCNCC2)Sc2ccccc21)NC1CCCCC1 (centres unmarked) [AVG-055] | > 20
CN1CCN(C(=O)C2Sc3ccccc3N(CC(=O)NC3CCCCC3)C2=O)CC1 (centres unmarked) [AVG-056] | 10 to 20
CN(C)C(=O)C1Sc2ccccc2N(CC(=O)NC2CCCCC2)C1=O (centres unmarked) [AVG-057] | 1 to 10
O=C(CN1C(=O)C(C(=O)NC2CCCCC2)Sc2ccccc21)NC1CCCCC1 (centres unmarked) [AVG-058] | 1 to 10
CN(C(=O)CN1C(=O)C(C(=O)N2CCCCC2)Sc2ccccc21)C1CCCCC1 (centres unmarked) [AVG-059] | > 20
O=C(CN1C(=O)C(C(=O)N2CCCCC2)Sc2ccccc21)N1CCCCC1 (centres unmarked) [AVG-060] | > 20
O=C(CN1C(=O)C(C(=O)N2CCCCC2)Sc2c(Cl)cccc21)NC1CCCCC1 (centres unmarked) [AVG-061] | 1 to 10
O=C(CN1C(=O)C(C(=O)N2CCCCC2)Sc2cc(Cl)ccc21)NC1CCCCC1 (centres unmarked) [AVG-062] | 0.1 to 1
O=C(CN1C(=O)C(C(=O)N2CCCCC2)Sc2ccc(Cl)cc21)NC1CCCCC1 (centres unmarked) [AVG-063] | 1 to 10

Structure (SMILES) | EC50 [µM]
O=C(CN1C(=O)C(C(=O)N2CCCCC2)Sc2cccc(Cl)c21)NC1CCCCC1 (centres unmarked) [AVG-064] | 10 to 20
O=C(CN1C(=O)C(C(=O)NC2CCOCC2)Sc2ccccc21)NC1CCCCC1 (centres unmarked) [AVG-083] | > 20
O=C(CN1C(=O)C(C(=O)NC2CCNCC2)Sc2ccccc21)NC1CCCCC1 (centres unmarked) [AVG-084] | > 20
CN1CCC(NC(=O)C2Sc3ccccc3N(CC(=O)NC3CCCCC3)C2=O)CC1 (centres unmarked) [AVG-085] | > 20
CCCCNC(=O)C1Sc2ccccc2N(CC(=O)NC2CCCCC2)C1=O (centres unmarked) [AVG-086] | 10 to 20
CC(C)NC(=O)C1Sc2ccccc2N(CC(=O)NC2CCCCC2)C1=O (centres unmarked) [AVG-087] | 10 to 20
O=C(C1Sc2ccccc2N(Cc2nc3ccccc3o2)C1=O)N1CCCCC1 (centres unmarked) [AVG-111] | > 20
O=C(C1Sc2ccccc2N(Cc2nc3ccccc3[nH]2)C1=O)N1CCCCC1 (centres unmarked) [AVG-112] | 10 to 20
NC(=O)CN1C(=O)C(C(=O)N2CCCCC2)Sc2ccccc21 (centres unmarked) [AVG-113] | > 20
O=C(CN1C(=O)C(C(=O)N2CCCCC2)Sc2ccccc21)NC1CC1 (centres unmarked) [AVG-114] | > 20
O=C(CN1C(=O)C(C(=O)N2CCCCC2)Sc2ccccc21)NCc1ccccc1 (centres unmarked) [AVG-137] | 1 to 10
CC(NC(=O)CN1C(=O)C(C(=O)N2CCCCC2)Sc2ccccc21)c1ccccc1 (centres unmarked) [AVG-138] | 1 to 10
CC(C)(NC(=O)CN1C(=O)C(C(=O)N2CCCCC2)Sc2ccccc21)c1ccccc1 (centres unmarked) [AVG-139] | 1 to 10
CC(C)(C)NC(=O)CN1C(=O)C(C(=O)N2CCCCC2)Sc2ccccc21 (centres unmarked) [AVG-140] | 1 to 10
CC(C)(C)NC(=O)C1Sc2ccccc2N(CC(=O)NC2CCCCC2)C1=O (centres unmarked) [AVG-141] | 1 to 10
O=C(CN1C(=O)C(C(=O)NCc2ccccc2)Sc2ccccc21)NC1CCCCC1 (centres unmarked) [AVG-142] | 10 to 20
CC(NC(=O)C1Sc2ccccc2N(CC(=O)NC2CCCCC2)C1=O)c1ccccc1 (centres unmarked) [AVG-143] | > 20
CC(C)(NC(=O)C1Sc2ccccc2N(CC(=O)NC2CCCCC2)C1=O)c1ccccc1 (centres unmarked) [AVG-144] | 1 to 10
COc1cccc2c1SC(C(=O)N1CCCCC1)C(=O)N2CC(=O)NC1CCCCC1 (centres unmarked) [AVG-145] | 1 to 10
COc1ccc2c(c1)SC(C(=O)N1CCCCC1)C(=O)N2CC(=O)NC1CCCCC1 (centres unmarked) [AVG-146] | 1 to 10

Structure (SMILES) | EC50 [µM]
COc1ccc2c(c1)N(CC(=O)NC1CCCCC1)C(=O)C(C(=O)N1CCCCC1)S2 (centres unmarked) [AVG-147] | 10 to 20
COc1cccc2c1N(CC(=O)NC1CCCCC1)C(=O)C(C(=O)N1CCCCC1)S2 (centres unmarked) [AVG-148] | 10 to 20
O=C(CN1C(=O)C(C(=O)N2CCCCC2)Sc2cc(Br)ccc21)NC1CCCCC1 (centres unmarked) [AVG-149] | 1 to 10
O=C(CN1C(=O)C(C(=O)N2CCCCC2)Sc2cc(F)ccc21)NC1CCCCC1 (centres unmarked) [AVG-150] | 1 to 10
Cc1ccc2c(c1)SC(C(=O)N1CCCCC1)C(=O)N2CC(=O)NC1CCCCC1 (centres unmarked) [AVG-151] | 10 to 20
CCc1ccc2c(c1)SC(C(=O)N1CCCCC1)C(=O)N2CC(=O)NC1CCCCC1 (centres unmarked) [AVG-152] | 1 to 10
CC(C)c1ccc2c(c1)SC(C(=O)N1CCCCC1)C(=O)N2CC(=O)NC1CCCCC1 (centres unmarked) [AVG-153] | 1 to 10
O=C(CN1C(=O)C(C(=O)N2CCCCC2)Sc2cc(-c3ccccc3)ccc21)NC1CCCCC1 (centres unmarked) [AVG-154] | > 20
O=C(CN1C(=O)C(C(=O)N2CCCCC2)Sc2cnccc21)NC1CCCCC1 (centres unmarked) [AVG-155] | 1 to 10
O=C(CN1C(=O)C(C(=O)N2CCCCC2)Sc2cc(C(F)(F)F)ccc21)NC1CCCCC1 (centres unmarked) [AVG-156] | 1 to 10
C=C(C)c1ccc2c(c1)SC(C(=O)N1CCCCC1)C(=O)N2CC(=O)NC1CCCCC1 (centres unmarked) [AVG-215] | 1 to 10
O=C(CN1C(=O)C(C(=O)N2CCCCC2)Sc2ccccc21)NCC1CCCCC1 (centres unmarked) [AVG-216] | 1 to 10
O=C(CN1C(=O)C(C(=O)N2CCCCC2)Sc2cc(Cl)ccc21)NCC1CCCCC1 (centres unmarked) [AVG-217] | 1 to 10
O=C(CN1C(=O)C(C(=O)NC2CCCCC2)Sc2cc(Cl)ccc21)NC1CCCCC1 (centres unmarked) [AVG-218] | 1 to 10
Cc1ccccc1NC(=O)CN1C(=O)C(C(=O)N2CCCCC2)Sc2cc(Cl)ccc21 (centres unmarked) [AVG-219] | 0.1 to 1
O=C(CN1C(=O)C(C(=O)N2CCCCC2)Sc2ccccc21)Nc1ccccc1Cl (centres unmarked) [AVG-220] | 1 to 10
COc1ccccc1NC(=O)CN1C(=O)C(C(=O)N2CCCCC2)Sc2ccccc21 (centres unmarked) [AVG-221] | 1 to 10
O=C(CN1C(=O)C(C(=O)N2CCCCC2)Sc2ccccc21)Nc1cccnc1 (centres unmarked) [AVG-223] | 10 to 20
O=C(CN1C(=O)C(C(=O)N2CCCCC2)Sc2ccccc21)Nc1ccncc1 (centres unmarked) [AVG-224] | 10 to 20
